Data on 1 compound can be found in patent US7390508B2, “Use of xenon with hypothermia for treating neonatal asphyxia” (Protexeon Limited, priority 2003, dated 2008).

Data set [1] is described as follows: xenon dissolved or dispersed in lipid emulsion. The class given is physicochemical. Conditions: 20° C. and normal pressure. The method, then:
It has been established that appreciable amounts of xenon maybe added to a lipid emulsion. Even by the simplest means, at 20° C. and normal pressure, xenon can be dissolved or dispersed in concentrations of 0.2 to 10 ml or more per ml of emulsion. The concentration of dissolved gas is dependent on a number of factors, including temperature, pressure and the concentration of lipid.

Data set [2] concerns p7 Sprague-Dawley rat pups. As to the kind of experiment: 7-day-old rat model of focal HI, treatment 4 h post-insult, cresyl violet histology of apoptotic, necrotic and viable cells (Example 2). The class given is in vivo. The text has this: p7 Sprague-Dawley rat pups (weighing between 10 and 14 g) from Harlan, U.K. were subjected to a previously described model of HI injury (Levine, 1960; Rice et al, 1981). In brief, rat pups were anaesthetised with 2% isoflurane before undergoing permanent unilateral ligation of the right common carotid artery, using a midline neck incision and 5.0 silk suture. Once surgery was complete, pups recovered from the anaesthesia and were then returned to the dam until the time of experimentation.
1 hr after surgery, pups were exposed to hypoxia by placing them into purpose-built, airtight chambers that were partially submerged in a 37° C. water bath (FIG. 9). […] Hypoxia was induced by a continuous flow of humidified 8% oxygen, balanced with nitrogen, and this mixture was monitored every 15 minutes by a Datex Ohmeda (Bradford, U.K.). (All gases were supplied by BOC.)
Following HI, pups were returned to the dam for 4 hrs to recover, after which time they were subjected to 90 minutes of one of the experimental interventions below. […] No significant difference existed between the two time periods and thus 4 h post-insult was chosen as the time to apply the intervention, as it was thought to be the most clinically relevant.
Pups were returned to their mothers until sacrifice at 16, 24 and 48 h following treatment (Northington et al, 2001) (FIG. 10).
The same experimental paradigm was followed for treatment with xenon, but instead of hypothermia, the water bath was maintained at 37° C. and the gas mixture was changed to 25% oxygen and 75% xenon for 90 minutes. Gas was delivered into a purpose-built, closed system to minimise xenon leakage (FIG. 9). Once again, the pups were returned to their mothers until sacrifice.
In the combination paradigm, the rats underwent both hypothermia and xenon concurrently for 90 minutes. Again, the pups were placed in airtight chambers, but on this occasion, their temperatures were maintained at 35° C. and the gas mixture consisted of 25% oxygen, only 20% xenon and balanced nitrogen. This temperature and xenon concentration was shown in preliminary experiments, to confer no neuroprotective benefit to the developing brain when used independently. Thus, by using these values, any neuroprotective benefit at all is indicative of synergy between the two agents. Following treatment, pups were returned to their mothers until sacrifice.
Neuronal injury was assessed by histological analysis of paraffin brain slices stained with cresyl violet. Cresyl violet is a basic stain that binds to acidic components of neuronal cytoplasm such as RNA-rich ribosomes, and also the nuclei and nucleoli of nerve cells.
Each experimental group consisted of three time groups (16, 24, 48 h), and each time group contained three animals, (thus there were nine animals in total for each experimental group). Three slides per animal were chosen from the area of the brain that was −3.6 mm from the bregma (FIG. 11). Slides were then sorted into time groups and the examiner was blinded to the intervention.
Two areas from the ipsilateral side of each brain were analysed using a BX60 light microscope (Olympus, Southall, U.K.)—one in the cortex and one in the gyrus of the hippocampus (FIG. 11). A 40× objective lens with a grid was used to count the total number of cells that appeared in the grid. Cells were scored as either viable, apoptotic, or necrotic based on their morphological appearance, and the percentage of each cell type was noted down for each of the brain areas. An Axiocam digital camera (Zeiss, Göttingen, Germany) was used along with the microscope to take photomicrographs of the brain slices.
The criteria for assigning cells to each category was as follows (FIG. 12): • 1. Cells undergoing either type of cell death (apoptosis or necrosis) took up the cresyl violet stain more intensely than viable cells, which were regularly shaped with pale cytoplasm, and a clearly visible, darker nucleus. • 2. […]

Data set [3] deals with Seven day old postnatal Sprague-Dawley rats. As to the kind of experiment: Neonatal asphyxia model, xenon during or 2 h after hypoxia (Example 1). The class given is in vivo, rat. The protocol: Seven day old postnatal Sprague-Dawley rats underwent right common carotid artery ligation under surgical anaesthesia (1%-1.5% isoflurane in pure oxygen). After ligation, the animals were returned to their mothers and placed in a specially designed area with constant of room temperature (23° C.) and humidity (48%). One hour after surgery, neonatal rats were placed in specially designed chamber with 8% oxygen combined with 0, 20, 40, 60 or 70% Xenon (with nitrogen making up the balance) for 90 min at 37° C. (temperature kept by water bath running outside chambers). At post-experimental day 7, rats (14 day old) were killed and their brains removed. The ratio of right hemisphere weight against left (R/L ratio) was calculated. Rat pups in some groups were allowed to live up to 30 days of postnatal age, at which time their neuromotor function and co-ordination were assessed with established protocols (Neuromotor testing and Rotarod testing).
The concentration-dependence of xenon neuroprotection (ratio right hemisphere weight/left against xenon concentration) is shown in FIG. 4. […] Control animals were subjected to carotid ligation but no hypoxia was given. Results are mean±SEM (n=5−8). * P<0.01 vs 8% O2.
At postnatal day 7 the right carotid artery was ligated and rat pups were exposed to a hypoxic environment (8% oxygen+70% xe and balance with nitrogen) for 90 min. Thirty days after the insult, rats were evaluated for neuromotor function (A) using a panel that included assays of prehensile traction, strength, and balance beam performance (graded on a 0-9 scale) and (B) balance on a Rotarod, a standard test of balance and neuromotor function. The data point from an individual rat is the sum of three tests. The horizontal bars indicate the median for each group.
The neuroprotective effect (ratio of right hemisphere/left) observed with N2 and xenon respectively is shown in FIG. 6, when xenon is administered 2 hours post HI insult. […]

Another data set has as its system neuronal cultures. As to the kind of experiment: oxygen-glucose deprivation (OGD)-induced lactate dehydrogenase (LDH) release in neuronal cultures. The class given is cell-based. As to conditions: for ED50 for xenon, OGD-induced LDH release: 75 minutes OGD, 6 hours of recovery, xenon concentration % atm, mean +/- SEM. The protocol:
The effect of mild hypothermia on the neuroprotective effect of xenon (LDH release against xenon concentration, % atm) is shown in FIG. 7. […] Cooling by 4 degrees greatly enhances the potency of xenon in blocking LDH release. […] (red), or at 33° C. (blue). […] Neuronal injury is expressed as a percentage of the maximal LDH release after 75 minutes of OGD and 6 hours of recovery in the absence of either xenon or hypothermia. Points represent mean values, with error bars indicating standard errors.
From the slope of such a plot the enthalpy change of the process can be calculated, its size being a measure of the temperature dependence. The data in red show the effect of temperature on LDH release in the absence of xenon. The reduction of release as the temperature is reduced is expected but modest. […] Hypothermia therefore appears to greatly enhance the neuroprotective effects of xenon.
(LDH in the medium is a marker of cell lysis.)

[4] abbreviates: 20% xenon alone, 37° C., cortex, 16 h, mean±SD (n=3).
Where [5] appears, read: 75% xenon, 37° C., 90 min, cortex, 16 h, mean±SD (n=3).
The mark [6] stands for this setting: 75% xenon, 37° C., 90 min, gyrus, 16 h, mean±SD (n=3).
The mark [7] stands for this setting: combination 20% xenon + 35° C. hypothermia, cortex, 16 h, mean±SD (n=3).

“And” between values parts separate entries of the source, which are not always exact repeats. Equal entries are not always repeated.

`[Xe]` [xenon]: the “concentration of xenon dissolved or dispersed in lipid emulsion” value in data set [1] is 0.2 to 10 ml per ml of emulsion. Further, the neuroprotection result in data set [2] (20% xenon alone, 37° C.) is “no neuroprotective effect”; in data set [2] (combination 20% xenon + 35° C. hypothermia, both areas of the brain, 16, 24 and 48 h), “profound synergistic neuroprotection”. Besides, the percentage of apoptosis in data set [2] (setting [4]) was 36%±5.7% and 35.8%±5.7%. In addition, the percentage of viability in data set [2] (setting [4]) is on record as 51%±7.8%. Also, the “apoptosis (percentage of total cell number)” value in data set [2] (setting [5]) was 8.5%±1.6%; in data set [2] (setting [6]), 13.9%±2.4%; in data set [2] (setting [7]) it was 7.2%±2%. The entries for the “viable cell count (percentage of total cell number)” value in data set [2] (setting [5]) and in data set [2] (setting [6]) were 80.6%±0.2% and 77.1%±3.3%, respectively. Also, the anti-necrosis result is “not anti-necrotic” in data set [2] (75% xenon, 16 and 24 h groups); “not however anti-necrotic” in data set [2] (75% xenon, gyrus, 48 h). In addition, in data set [2] (75% xenon, 24 and 48 h groups, cortex and gyrus), the “anti-apoptosis compared to positive control animals” value is “statistically significant anti-apoptosis”. Also, the “percentage of viable cells vs. positive controls” value in data set [2] (75% xenon, 24 h, cortex and gyrus) is given as “significant increase in the percentage of viable cells”. Moreover, the “necrosis (percentage of total cell number)” value in data set [2] (75% xenon, cortex, 48 h, mean±SD (n=3)) was 10.7%±0.4%. Besides, the “viable cells (percentage of total cell number)” value in data set [2] (setting [7]) was 82.3%±4.9%. In data set [2] (combination 20% xenon + 35° C. hypothermia, gyrus, 24 h), the type of protection entry is on record as “anti-necrotic as well as anti-apoptotic protection”. For the same compound, in data set [3] (0, 20, 40, 60 or 70% xenon with 8% oxygen for 90 min at 37° C., brains at 14 days), the “concentration-dependence of xenon neuroprotection (ratio right hemisphere weight/left)” value is “Neuroprotection is evident even at sub-anaesthetic concentrations”. For the same compound, the “neuroprotective effect (ratio of right hemisphere/left)” value in data set [3] (70% Xe+30% O2 for 90 min, given 2 hours after the end of the hypoxic period) is recorded as “effective in providing neuroprotection”. In addition, in data set [3] (70% xenon breathed during the 90 min hypoxic period), the “gross anatomical appearance of brain slices” value is “look close to normal”. The “temperature dependence of LDH release (van't Hoff plot)” value in the data set with neuronal cultures (12.5% xenon present) is “very large and unexpected”. In addition, the figures for the “ED50 for xenon, OGD-induced LDH release” value in the data set with neuronal cultures (33° C.) and with neuronal cultures (37° C.) were 11.5+/−2.0% and 35.9+/−2.15%, respectively.
